# According to patent publication EP0943339A2, “Method of preventing allograft rejection” (priority 1998, dated 1999):
# System: acute allograft rejection
# Assay: murine cardiac ear pinna model of acute allograft rejection (non-vascularized cardiac tissue transplantation)
# Assay type: in vivo
# Details: for Graft Survival Mean ± Std Dev: monotherapy, day 0 to 17
# From the text: In Vivo Murine Cardiac Ear Pinnae Model of Transplatation
# • Methods: A rapid, facile 2-week murine bioassay of non-vascularized cardiac tissue transplantation,t he murine cardiac ear pinna model of acute allograft rejection, was used to evaluate the dose-response relationship of immunosuppressive drugs on allograft rejection. In this model, donor BALB/C (N2^d) neonatal hearts are transplanted into recipient C3H/HeN (H2^k) ear pinna pouches without vacular anastomoses. […] All compounds are given on day 0 to 17 COMPOUND P [(+)-2-[3,4-dihydro(3S,4R)-4-hydroxy-3-(4-phenyl-phenylmethyl)-7-(2H, 1-benzopyran)]cyclopentane carboxylic acid] was given orally in 0.5% Methylcellulose. […] Grafts were assessed by visual examination for contraction on alternate days (from 6 to 18) and graft survival was defined as the post-transplant day on which contractions cease. Efficacy data from day 6 to 18 is presented as mean survival days (±SD) and was analyzed by Log Rank Analysis. Graft survival values were deterined at day 18. […] The studies were performed at Stanford Medical Ceter in a collaborative grant with Randall Morris, MD. […]
smiles,measurement,setting,value
"C=CC[C@@H]1/C=C(\C)C[C@H](C)C[C@H](OC)[C@H]2O[C@@](O)(C(=O)C(=O)N3CCCC[C@H]3C(=O)O[C@H](/C(C)=C/[C@@H]3CC[C@@H](O)[C@H](OC)C3)[C@H](C)[C@@H](O)CC1=O)[C@H](C)C[C@@H]2OC (relative stereo) [FK506, [3S-[3R*[E(1S*,3S*,4S*)], 4S*, 5R*, 8S*, 9E, 12R*, 14R*, 15S*, 16R*, 18S*, 19S*, 26aR*]]-5,6,8,11,12,13,14,15,16,17,18,19,24,25,26,26a-Hexadeachydro-5,19-dihydroxy-3-[2-(4-hydroxy-3-[2-(4-hydroxy-3-methoxycyclohexyl)-1-methyl-ethenyl]-14,16-dimethoxy-4,10,12,18-tetramethyl-8-(2-propenyl)-15,19-epoxy-3H-pyrido[2,1-c][1,4]oxaazacyclotricosine-1,7,20,21(4H,23H)-tetrone]",Graft Survival Mean ± Std Dev,"FK506 0.2 mg/kg/d intraperitoneal, survival assessed to day 18",11.6 ± 1.3 days
same,Graft Survival Mean ± Std Dev,"FK506 0.4 mg/kg/d intraperitoneal, survival assessed to day 18",12.4 ± 0.9 days
same,Graft Survival Mean ± Std Dev,"FK506 0.6 mg/kg/d intraperitoneal, grafts surviving at day 18 censored",>16.9 ± 1.8 days
same,Graft Survival Mean ± Std Dev,"FK506 0.8 mg/kg/d intraperitoneal, grafts surviving at day 18 censored",>17.8 ± 0.6 days
"O=C(O)C1CCCC1c1ccc2c(c1)OC[C@H](Cc1ccc(-c3ccccc3)cc1)[C@H]2O (single isomer, unassigned; (+)) [COMPOUND P]",efficacy as a single agent in acute rejection,"highest dose, 300 mg/kg/d",significant (p<0.01)
same,Graft Survival Mean ± Std Dev,"COMPOUND P 30 mg/kg/d orally, survival assessed to day 18",11.0 ± 1.1 days
same,Graft Survival Mean ± Std Dev,"COMPOUND P 100 mg/kg/d orally, survival assessed to day 18",10.3 ± 0.7 days
same,Graft Survival Mean ± Std Dev,"COMPOUND P 200 mg/kg/d orally, survival assessed to day 18",10.3 ± 0.7 days
same,Graft Survival Mean ± Std Dev,"COMPOUND P 300 mg/kg/d orally, survival assessed to day 18",11.8 ± 1.1 days
COc1c(C)c2c(c(O)c1C/C=C(\C)CCC(=O)O)C(=O)OC2 [MPA],Graft Survival Mean ± Std Dev,"MPA 100 mg/kg/d, survival assessed to day 18",13.6 ± 1.9 days
same,Graft Survival Mean ± Std Dev,"MPA 150 mg/kg/d, survival assessed to day 18",16.6 ± 1.9 days
